According to ChEMBL document CHEMBL1145121, “Docking studies on alphavbeta3 integrin ligands: pharmacophore refinement and implications for drug design” (J Med Chem, 2003):

These molecules were tested against Integrin alpha-V/beta-3 (Homo sapiens, UniProt P05106+P06756) (assay: Inhibition of binding to alphaV-beta3 integrin).
Format: protein-complex assay

Chain of Integrin alpha-V/beta-3 (P05106 27-788 limits assumed): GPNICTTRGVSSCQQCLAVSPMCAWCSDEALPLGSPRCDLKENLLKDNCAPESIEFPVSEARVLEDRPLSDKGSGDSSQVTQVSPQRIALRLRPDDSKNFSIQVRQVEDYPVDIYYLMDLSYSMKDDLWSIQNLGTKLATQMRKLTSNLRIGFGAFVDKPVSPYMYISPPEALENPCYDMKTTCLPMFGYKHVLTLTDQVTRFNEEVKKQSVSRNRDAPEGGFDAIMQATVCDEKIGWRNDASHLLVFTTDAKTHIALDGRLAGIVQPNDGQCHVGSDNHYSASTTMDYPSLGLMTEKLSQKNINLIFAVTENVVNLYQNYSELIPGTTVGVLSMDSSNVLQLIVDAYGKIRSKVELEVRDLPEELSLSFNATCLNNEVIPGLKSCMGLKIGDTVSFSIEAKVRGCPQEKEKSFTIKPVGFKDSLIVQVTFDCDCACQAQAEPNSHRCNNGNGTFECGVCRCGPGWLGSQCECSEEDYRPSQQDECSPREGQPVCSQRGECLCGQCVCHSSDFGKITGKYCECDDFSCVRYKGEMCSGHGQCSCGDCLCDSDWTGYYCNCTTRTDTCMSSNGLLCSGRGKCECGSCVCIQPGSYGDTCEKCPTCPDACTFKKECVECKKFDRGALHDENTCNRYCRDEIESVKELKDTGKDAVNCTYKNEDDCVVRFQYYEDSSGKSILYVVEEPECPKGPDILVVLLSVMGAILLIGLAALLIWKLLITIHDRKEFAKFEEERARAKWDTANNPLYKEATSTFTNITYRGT
Chain of Integrin alpha-V/beta-3 (P06756 31-889 limits assumed): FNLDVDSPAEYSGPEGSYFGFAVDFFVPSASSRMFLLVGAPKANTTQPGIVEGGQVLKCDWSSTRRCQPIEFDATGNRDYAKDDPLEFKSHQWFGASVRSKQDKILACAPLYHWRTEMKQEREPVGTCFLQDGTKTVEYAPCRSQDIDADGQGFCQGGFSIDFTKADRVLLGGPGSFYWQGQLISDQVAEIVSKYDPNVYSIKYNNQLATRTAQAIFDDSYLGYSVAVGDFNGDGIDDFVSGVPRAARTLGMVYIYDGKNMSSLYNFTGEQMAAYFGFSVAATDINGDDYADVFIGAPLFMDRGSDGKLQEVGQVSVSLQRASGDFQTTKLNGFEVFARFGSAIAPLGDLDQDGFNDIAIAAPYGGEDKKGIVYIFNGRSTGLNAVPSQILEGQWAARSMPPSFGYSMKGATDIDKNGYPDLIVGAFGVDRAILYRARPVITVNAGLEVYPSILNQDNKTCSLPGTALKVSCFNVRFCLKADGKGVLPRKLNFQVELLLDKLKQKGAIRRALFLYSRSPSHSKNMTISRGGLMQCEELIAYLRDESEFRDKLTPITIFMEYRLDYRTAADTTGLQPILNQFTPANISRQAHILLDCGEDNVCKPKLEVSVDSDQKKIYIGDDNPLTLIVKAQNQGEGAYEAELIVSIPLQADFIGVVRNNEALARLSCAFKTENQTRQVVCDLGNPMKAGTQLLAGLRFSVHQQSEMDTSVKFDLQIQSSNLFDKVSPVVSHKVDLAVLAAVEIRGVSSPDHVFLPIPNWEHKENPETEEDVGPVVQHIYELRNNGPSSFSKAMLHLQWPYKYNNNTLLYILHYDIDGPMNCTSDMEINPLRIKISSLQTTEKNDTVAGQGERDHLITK
Chain of Integrin alpha-V/beta-3 (P06756 891-1048 limits assumed): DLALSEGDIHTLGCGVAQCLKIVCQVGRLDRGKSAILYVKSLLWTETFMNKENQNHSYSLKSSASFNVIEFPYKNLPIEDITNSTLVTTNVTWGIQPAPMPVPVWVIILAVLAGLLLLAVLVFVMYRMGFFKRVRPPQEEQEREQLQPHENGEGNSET

| IC50 [nM] | SMILES |
| --- | --- |
| 0.8 | CC(C)C[C@H]1C(=O)N[C@@H](CCCNC(=N)N)C(=O)NCC(=O)N[C@@H](CC(=O)O)C(=O)N[C@@H]2CCN1C2=O |
| 40 | CC(C)C[C@H]1NC(=O)[C@H](CCCN=C(N)N)NC(=O)CNC(=O)[C@@H](CC(=O)O)NC(=O)[C@@H](Cc2ccccc2)NC1=O |
| 0.6 | CC(C)C[C@H]1C(=O)N[C@@H](CCCN=C(N)N)C(=O)NCC(=O)N[C@@H](CC(=O)O)C(=O)N[C@H](Cc2ccccc2)C(=O)N1C |
| 7200 | NC(=O)[C@@H](CC(=O)O)NC(=O)NNC(=O)c1cccc(N=C(N)N)c1 |
| 150 | N=C(N)Nc1cccc(C(=O)NNC(=O)N[C@@H](CC(=O)O)C(N)=O)c1 |
| 2.6 | N=C(N)Nc1cccc(C(=O)NNC(=O)NC(CC(=O)O)c2ccccc2)c1 (stereo unspecified) |
